The test system of the assay is P388 leukemia ip, CD2F1 mice, survival T/C. The experiment in a line: NCI In Vivo Anticancer Drug Screen. Data for tumor model P388 Leukemia (intraperitoneal) in CD2F1 (CDF1) mice. The conditions noted are these: endpoint: median survival time, higher = longer survival. In a few lines: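 Mice carrying the transplanted tumor received test compound or vehicle. Survival was recorded in each group, and the value is the treated-group measurement divided by that of the vehicle-treated control group.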

[1] abbreviates: dose: 50.0 mg/kg/injection, schedule: Q01DX009 (ip), vehicle: Klucel (hydroxypropylcellulose) (HPC).
[2] abbreviates: dose: 100.0 mg/kg/injection, schedule: Q01DX009 (ip), vehicle: Klucel (hydroxypropylcellulose) (HPC).
Setting [3] is: dose: 200.0 mg/kg/injection, schedule: Q01DX009 (ip), vehicle: Klucel (hydroxypropylcellulose) (HPC).
[4] abbreviates: dose: 50.0 mg/kg/injection, schedule: Q01DX005 (ip), vehicle: saline with Tween-80.
The mark [5] stands for this setting: dose: 100.0 mg/kg/injection, schedule: Q01DX005 (ip), vehicle: saline with Tween-80.
[6] abbreviates: dose: 200.0 mg/kg/injection, schedule: Q01DX005 (ip), vehicle: saline with Tween-80.
Where [7] appears, read: dose: 12.5 mg/kg/injection, schedule: Q01DX009 (ip), vehicle: saline with Tween-80.
Where [8] appears, read: dose: 25.0 mg/kg/injection, schedule: Q01DX009 (ip), vehicle: saline with Tween-80.

This passage reports T/C results from PubChem BioAssay AID330 (DTP/NCI, 2004).

Where “and” joins values, the source holds several entries; their conditions need not be identical. Identical values can stand only once. Toxic doses and inconclusive results are not listed.

For the compound `Cc1cc(C)cc([C@H](C)N=Cc2cc(Br)ccc2O)c1`, the T/C (dose: 100.0 mg/kg/injection, schedule: Q04DX002 (ip), vehicle: saline with Tween-80) was 100 % of control; the T/C (dose: 200.0 mg/kg/injection, schedule: Q04DX002 (ip), vehicle: saline with Tween-80) was 100 % of control; the T/C (dose: 400.0 mg/kg/injection, schedule: Q04DX002 (ip), vehicle: saline with Tween-80) was 108 % of control.

As for `Cc1ccc2nc(NC(=S)NCCNC(=S)Nc3ccc4cc(C)ccc4n3)ccc2c1`, the T/C is, setting by setting: under setting [1], 94 % of control; under setting [2], 92 % of control; under setting [3], 90 % of control.

On to `O=C1CSC(=S)N1Cc1cccnc1`, for which the T/C reads like this: under setting [1], 100 % of control; under setting [2], 102 % of control; under setting [3], 106 % of control.

As for `O=C(CCCc1ccccc1)N1CCOCC1`, the T/C runs as follows: (dose: 50.0 mg/kg/injection, schedule: Q01DX001 (ip), vehicle: saline sonified) 90 % of control; (dose: 100.0 mg/kg/injection, schedule: Q01DX001 (ip), vehicle: saline sonified) 109 % of control; (dose: 200.0 mg/kg/injection, schedule: Q01DX001 (ip), vehicle: saline sonified) 100 % of control.

On to `NCCCC(C(=O)O)N(C(=O)OCc1ccccc1)C(=O)OCc1ccccc1` (stereo not drawn), for which the T/C by setting is: under setting [4], 97 % of control; under setting [5], 101 % of control; under setting [6], 90 % of control.

In the case of `CC1=C(N(C)C)C(=O)N(c2ccccc2)CN1C`, the T/C reads like this: (dose: 3.75 mg/kg/injection, schedule: Q01DX005 (ip), vehicle: saline with Tween-80) 111 % of control; (dose: 7.5 mg/kg/injection, schedule: Q01DX005 (ip), vehicle: saline with Tween-80) 102 % of control; (dose: 15.0 mg/kg/injection, schedule: Q01DX005 (ip), vehicle: saline with Tween-80) 101 % of control and 103 % of control.

For the compound `CC1(C)/C=C/C2=Nc3cc(Br)c(Br)c(Br)c3C23CC(=O)N3/C=C(\Cl)c2nc(Br)[nH]c21` (stereo not drawn), the T/C (dose: 0.7 mg/kg/injection, schedule: Q01DX005 (ip), vehicle: Klucel (hydroxypropylcellulose) (HPC)) is 106 % of control; the T/C (dose: 1.4 mg/kg/injection, schedule: Q01DX005 (ip), vehicle: Klucel (hydroxypropylcellulose) (HPC)) is 101 % of control; the T/C (dose: 2.8 mg/kg/injection, schedule: Q01DX005 (ip), vehicle: Klucel (hydroxypropylcellulose) (HPC)) was 97 % of control; the T/C (dose: 5.6 mg/kg/injection, schedule: Q01DX005 (ip), vehicle: Klucel (hydroxypropylcellulose) (HPC)) is 112 % of control.

Turning to `COC(=O)CC1(C(=O)OC)C2=C(C(C(=O)C(F)F)CC2)N2CCCC21` (stereo not drawn), the T/C reads like this: (dose: 12.5 mg/kg/injection, schedule: Q01DX001 (ip), vehicle: Klucel (hydroxypropylcellulose) (HPC)) 94 % of control; (dose: 25.0 mg/kg/injection, schedule: Q01DX001 (ip), vehicle: Klucel (hydroxypropylcellulose) (HPC)) 97 % of control; (dose: 50.0 mg/kg/injection, schedule: Q01DX001 (ip), vehicle: Klucel (hydroxypropylcellulose) (HPC)) 100 % of control.

For `Cc1ccc(/C=C/C(=O)C(C)(C)CN(C)CCN(C)C)cc1`, the T/C (dose: 60.0 mg/kg/injection, schedule: Q01DX005 (ip), vehicle: saline) was 103 % of control and the T/C (dose: 120.0 mg/kg/injection, schedule: Q01DX005 (ip), vehicle: saline) was 98 % of control.

For `CC(=O)C(Cl)C(=O)c1c(-c2ccccc2)[nH]c2ccccc12` (stereo not drawn), the T/C is, setting by setting: (dose: 100.0 mg/kg/injection, schedule: Q01DX001 (ip), vehicle: Klucel (hydroxypropylcellulose) (HPC)) 100 % of control; (dose: 200.0 mg/kg/injection, schedule: Q01DX001 (ip), vehicle: Klucel (hydroxypropylcellulose) (HPC)) 102 % of control; (dose: 400.0 mg/kg/injection, schedule: Q01DX001 (ip), vehicle: Klucel (hydroxypropylcellulose) (HPC)) 105 % of control.

Take `CCOC(=O)CCC(NC(=O)c1ccc(NCc2ccc3nc(N)nc(N)c3c2C)cc1)C(=O)OCC` (stereo not drawn): the T/C (dose: 0.01 mg/kg/injection, schedule: Q01DX009 (ip), vehicle: saline + alcohol) is 108 % of control and 109 % of control; the T/C (dose: 0.02 mg/kg/injection, schedule: Q01DX009 (ip), vehicle: saline + alcohol) was 98 % of control and 113 % of control; the T/C (dose: 0.03 mg/kg/injection, schedule: Q01DX009 (ip), vehicle: saline + alcohol) is 153 % of control and 162 % of control; the T/C (dose: 0.06 mg/kg/injection, schedule: Q01DX001 (ip), vehicle: saline + alcohol) is 100 % of control and 88 % of control; the T/C (dose: 0.06 mg/kg/injection, schedule: Q01DX009 (ip), vehicle: saline + alcohol) is 170 % of control; the T/C (dose: 0.13 mg/kg/injection, schedule: Q01DX001 (ip), vehicle: saline + alcohol) is 111 % of control and 117 % of control. The T/C (dose: 0.25 mg/kg/injection, schedule: Q01DX001 (ip), vehicle: saline + alcohol) is 109 % of control and 110 % of control.

For the compound `CC1CCCCN1CCCNC(=O)Nc1ccc(Cc2ccc(NC(=O)NCCCN3CCCCC3C)cc2)cc1` (stereo not drawn), the T/C was 95 % of control (dose: 0.79 mg/kg/injection, schedule: Q01DX009 (ip), vehicle: Klucel (hydroxypropylcellulose) (HPC)) and 97 % of control (dose: 1.56 mg/kg/injection, schedule: Q01DX009 (ip), vehicle: Klucel (hydroxypropylcellulose) (HPC)).

`COc1cc2c(cc1OC)NCC1COc3c(ccc(OC)c3OC)C1=N2` (stereo not drawn): the T/C is, setting by setting: under setting [4], 96 % of control; under setting [5], 88 % of control; under setting [6], 92 % of control.

On to `O=S(=O)(O)c1cccnc1`, for which the T/C is, setting by setting: (dose: 100.0 mg/kg/injection, schedule: Q01DX009 (ip), vehicle: saline) 104 % of control; (dose: 100.0 mg/kg/injection, schedule: Q04DX003 (ip), vehicle: saline) 100 % of control; (dose: 200.0 mg/kg/injection, schedule: Q01DX009 (ip), vehicle: saline) 104 % of control; (dose: 200.0 mg/kg/injection, schedule: Q04DX003 (ip), vehicle: saline) 95 % of control; (dose: 400.0 mg/kg/injection, schedule: Q01DX009 (ip), vehicle: saline) 95 % of control; (dose: 400.0 mg/kg/injection, schedule: Q04DX003 (ip), vehicle: saline) 100 % of control.

For `CC(=O)N(CCCN1C(=O)c2ccccc2C1=O)c1ccc2c(c1)c(-c1ccccc1)nc1cc([N+](=O)[O-])ccc12`, the T/C is 98 % of control (dose: 3.13 mg/kg/injection, schedule: Q01DX009 (ip), vehicle: other); 95 % of control (dose: 6.25 mg/kg/injection, schedule: Q01DX009 (ip), vehicle: other); 87 % of control (dose: 12.5 mg/kg/injection, schedule: Q01DX009 (ip), vehicle: other); 106 % of control (dose: 50.0 mg/kg/injection, schedule: Q01DX009 (ip), vehicle: other); 96 % of control (dose: 100.0 mg/kg/injection, schedule: Q01DX009 (ip), vehicle: other).

Turning to `CC1(C)CC(OP(=S)(OC2CC(C)(C)N(O)C(C)(C)C2)N2CC2)CC(C)(C)N1O`, the T/C is, setting by setting: (dose: 50.0 mg/kg/injection, schedule: Q01DX009 (ip), vehicle: saline + alcohol) 124 % of control; (dose: 200.0 mg/kg/injection, schedule: Q01DX009 (ip), vehicle: saline + alcohol) 168 % of control.

On to `Clc1ccccc1/C=C/C=C1c2ccccc2-c2ccccc21`, for which the T/C under setting [7] was 90 % of control; the T/C under setting [8] was 104 % of control; the T/C (dose: 50.0 mg/kg/injection, schedule: Q01DX009 (ip), vehicle: saline with Tween-80) is 113 % of control; the T/C (dose: 100.0 mg/kg/injection, schedule: Q04DX003 (ip), vehicle: saline with Tween-80) was 95 % of control; the T/C (dose: 200.0 mg/kg/injection, schedule: Q04DX003 (ip), vehicle: saline with Tween-80) is 109 % of control; the T/C (dose: 400.0 mg/kg/injection, schedule: Q04DX003 (ip), vehicle: saline with Tween-80) is 109 % of control.

For `CC(C)(C)NCC(CN1CCOCC1)C(=O)c1ccccc1` (stereo not drawn), the T/C is, setting by setting: (dose: 6.25 mg/kg/injection, schedule: Q01DX005 (ip), vehicle: Klucel (hydroxypropylcellulose) (HPC)) 99 % of control; (dose: 12.5 mg/kg/injection, schedule: Q01DX005 (ip), vehicle: Klucel (hydroxypropylcellulose) (HPC)) 96 % of control.

With `Nc1nc(=S)c2n[nH]nc2[nH]1`, the T/C reads like this: (dose: 11.0 mg/kg/injection, schedule: Q01DX009 (ip), vehicle: saline with Tween-80) 101 % of control and 105 % of control; under setting [7], 104 % of control; (dose: 16.5 mg/kg/injection, schedule: Q01DX009 (ip), vehicle: saline with Tween-80) 98 % of control and 103 % of control; under setting [8], 103 % of control and 91 % of control; (dose: 37.5 mg/kg/injection, schedule: Q01DX009 (ip), vehicle: saline with Tween-80) 98 % of control and 101 % of control.
